The record followed here is patent US8759099B2, “Pancreatic islet separation method, and protective solution for protecting pancreatic islet tissue” (Otsuka Pharmaceutical Factory, Inc., priority 2010, dated 2014).

This data set has as its system mouse islets. The data set can be described thus: LDH leakage cytotoxicity of mouse islets cultured in the presence of neutrophil elastase. Conditions: FIG. 3. Format: cell-based. As to the method:
The concentration of the neutrophil elastase inhibitor used in the isolation method of the present invention was examined as follows using the extracellular leakage of LDH (lactate dehydrogenase) (indicator for cytotoxicity) as an indicator.
First, mouse islets were cultured in the presence of neutrophil elastase at a concentration of 0.31 to 10 μg/mL and the supernatant was collected after a lapse of a certain time. Subsequently, the remaining mouse islets were homogenized and the islet suspension was collected. LDH contained in the collected supernatant and the islet suspension was measured by using a LDH assay kit to measure absorbance at 562 nm. The optimal concentration of the neutrophil elastase inhibitor was examined by adding 2 to 200 μM of the neutrophil elastase inhibitor, sivelestat, in culturing mouse islets in the presence of various concentrations of neutrophil elastase, and similarly measuring the amount of LDH. The cytotoxicity was expressed as the percentage (%) of the amount of LDH contained in the supernatant in the sum of the amount of LDH contained in the supernatant and the amount of LDH contained in the islet suspension.

Consider `CC(C)(C)C(=O)Oc1ccc(S(=O)(=O)Nc2ccccc2C(=O)NCC(=O)O)cc1` [sivelestat], for which the “optimal concentration of the neutrophil elastase inhibitor” value (from suppression of LDH leakage among 2, 20, 200 μM) came to 20 µM. Besides, the “damage of islet cells (cytotoxicity, LDH in supernatant as % of total LDH)” value (mouse islets with neutrophil elastase 0.31 to 10 μg/mL, 2, 20 or 200 μM sivelestat compared, result at 20 μM) was “most suppressed”.
